Source: PubChem BioAssay AID2060490 (Molecular Pharmacology Branch, DTP, NCI, 2025)
pIC50: −log10 of the molar value.

System: 885512-296-R-J2-PDC complex spheroid viability
Experiment: Anticancer human tumor 885512-296-R-J2-PDC patient-derived breast carcinoma cell line growth inhibition [GQUAD]
Conditions: for pIC50: curve of first compound; for viability, T/C: stronger effect = lower value
Text: DNA G-quadruplex Stabilizer Agents in Combinations in Complex Spheroids
A high-throughput screen of multi-cell type tumor spheroids was designed to identify active combinations of DNA G-quadruplex stabilizer agents and targeted small molecules. Complex spheroids include a stromal component modeled by human endothelial cells (HUVEC) and fibroblasts modeled by human mesenchymal stem cells (MSCs). The concentration ranges selected for each drug and investigational agent were based upon clinically achievable concentrations if the clinical Cmax of the agent was known.
Compounds. The drugs and investigational agents: pidnarulex (CX-5461; NSC782164), APTO-253 (NSC789042), BRACO-19 (NSC847499), peposertib (NSC802822), ceralasertib (NSC780249), elimusertib (NSC800525), camonsertib (NSC841442), AZD-1390 (NSC803789), olaparib (NSC753686), talazoparib (NSC767125), ART-558 (NSC835418), sotorasib (NSC818433), MRTX-1133 (NSC836407), SN-38 (NSC673596), topotecan (NSC609699), etoposide (NSC141540), doxorubicin (NSC123127), gemcitabine (NSC613327), 5-fluorouracil (NSC19893), paclitaxel (NSC125973), vemurafenib (NSC761431), panobinostat (NSC761190), R-306465 (JNJ-16241199; NSC773264), adavosertib (NSC754352), TP-3654 (NSC805149), carboplatin (NSC241240), KSQ-4279 (NSC840948), and staurosporine (NSC755774) were obtained from the National Cancer Institute (NCI) Developmental Therapeutics Program Chemical Repository (34). The FDA-approved anticancer drug set is available from the NCI Developmental Therapeutics Program. […] The stock solutions were prepared in dimethyl sulfoxide (DMSO, Sigma-Aldrich, St. Louis, MO, cat. D2650) at 800-fold the tested concentration and stored at -70 degrees C prior to their use. All drugs and investigational agents were tested over a range starting from a high concentration at or near the clinical Cmax and decreasing in half-log increments. If the clinical Cmax for an agent had not been determined, the highest concentration tested was 10 microM.
2.3 Cell Culture. All cells were maintained in an incubator at 37 degrees C and 5% CO2 with 95% humidity. The PDC lines were cultured according to standard operating procedures established by the NCI PDMR. All PDCs were thawed and cultured in Matrigel-coated flasks prepared with a working solution of 1X Ham's F-12 nutrient mix, without supplementation (Invitrogen, cat. 11765054), 100 U/mL penicillin-streptomycin (Invitrogen, cat. 15140122), and 2.5% Matrigel (Corning Inc., cat. 354248) for the first three passages. The 857933-349-R-J2-PDC line was cultured in 6C/Colon 1B media, which includes advanced DMEM/F-12 (Thermo Fisher Scientific, cat. 12634028), 10 mM HEPES (Thermo Fisher Scientific, cat. 15630080), 1X GlutaMAX supplement (Thermo Fisher Scientific, cat. 35050061), 0.1 mg/mL primocin (InvivoGen, cat. ant-pm-2), 10% defined fetal bovine serum, heat inactivated (HyClone Laboratories Inc., cat. SH30070.03HI), 50% L-WRN conditioned media (ATCC, cat. CRL-3276), 1.25 mM N-Acetyl-L-cysteine (Sigma-Aldrich, cat. A9165), 10 mM nicotinamide (Sigma-Aldrich, cat. N0636), 1X B-27 supplement (Thermo Fisher Scientific, cat. 17504044), 1X N-2 supplement (Thermo Fisher Scientific, cat. 17502048), 10 microM Y-27632 dihydrochloride (Tocris Bioscience, cat. 1254), and 50 ng/mL human EGF recombinant protein (Thermo Fisher Scientific, cat. PHG0311). The 485176-168-R4-J1-PDC line was cultured in Panc media, which includes all 6C/Colon 1B media components plus 100 ng/mL human FGF-10 (Thermo Fisher Scientific, cat. 100-26), 500 nM SB-431542 (Selleckchem, cat. S1067), and gastrin (Tocris, cat. 3006).
[…]
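Further: spheroids exposed to the compounds for one week.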
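Wherever viability, T/C is given: percent of tumor spheroid viability relative to DMSO vehicle control wells.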

COc1ccc([C@@H](O)c2cc(-c3ncnc4cc(N5CCOCC5)ccc34)c(F)cc2Cl)nn1 + Cc1cnc(CNC(=O)c2c(=O)c3ccc(N4CCCN(C)CC4)nc3n3c2sc2ccccc23)cn1
pIC50 (second compound 0.0316 µM): 6.56
pIC50 (second compound 0.1 µM): 6.90
pIC50 (second compound 0.316 µM): > 7.50
pIC50 (second compound 1 µM): > 7.50
pIC50 (second compound 3.16 µM): > 7.50
pIC50 (second compound 10 µM): > 7.50
viability, T/C (second compound 0.0316 µM, first compound 0.0316 µM): 93.6%
viability, T/C (second compound 0.0316 µM, first compound 0.1 µM): 73.1%
viability, T/C (second compound 0.0316 µM, first compound 0.316 µM): 50%
viability, T/C (second compound 0.0316 µM, first compound 1 µM): 25.6%
viability, T/C (second compound 0.0316 µM, first compound 3.16 µM): 32%
viability, T/C (second compound 0.0316 µM, first compound 10 µM): 29.4%
viability, T/C (second compound 0.1 µM, first compound 0.0316 µM): 67.1%
viability, T/C (second compound 0.1 µM, first compound 0.1 µM): 54.7%
viability, T/C (second compound 0.1 µM, first compound 0.316 µM): 28.2%
viability, T/C (second compound 0.1 µM, first compound 1 µM): 30%
viability, T/C (second compound 0.1 µM, first compound 3.16 µM): 33.1%
viability, T/C (second compound 0.1 µM, first compound 10 µM): 29.2%
viability, T/C (second compound 0.316 µM, first compound 0.0316 µM): 26.1%
viability, T/C (second compound 0.316 µM, first compound 0.1 µM): 21.2%
viability, T/C (second compound 0.316 µM, first compound 0.316 µM): 24.2%
viability, T/C (second compound 0.316 µM, first compound 1 µM): 24.6%
viability, T/C (second compound 0.316 µM, first compound 3.16 µM): 24.8%
viability, T/C (second compound 0.316 µM, first compound 10 µM): 23.8%
viability, T/C (second compound 1 µM, first compound 0.0316 µM): 21.8%
viability, T/C (second compound 1 µM, first compound 0.1 µM): 26.6%
viability, T/C (second compound 1 µM, first compound 0.316 µM): 21.9%
viability, T/C (second compound 1 µM, first compound 1 µM): 24.3%
viability, T/C (second compound 1 µM, first compound 3.16 µM): 29.9%
viability, T/C (second compound 1 µM, first compound 10 µM): 18.9%
viability, T/C (second compound 3.16 µM, first compound 0.0316 µM): 24.8%
viability, T/C (second compound 3.16 µM, first compound 0.1 µM): 25.4%
viability, T/C (second compound 3.16 µM, first compound 0.316 µM): 25.1%
viability, T/C (second compound 3.16 µM, first compound 1 µM): 22.7%
viability, T/C (second compound 3.16 µM, first compound 3.16 µM): 23.2%
viability, T/C (second compound 3.16 µM, first compound 10 µM): 17.2%
viability, T/C (second compound 10 µM, first compound 0.0316 µM): 0.11%
viability, T/C (second compound 10 µM, first compound 0.1 µM): 0.2%
viability, T/C (second compound 10 µM, first compound 0.316 µM): 0.17%
viability, T/C (second compound 10 µM, first compound 1 µM): 0.15%
viability, T/C (second compound 10 µM, first compound 3.16 µM): 0.18%
viability, T/C (second compound 10 µM, first compound 10 µM): 0.19%
